Data reported in patent US20220306603A1, “TARGETING DNA REPAIR IN TUMOR CELLS VIA INHIBITION OF ERCC1-XPF” (The Governors of the University of Alberta, priority 2019, published 2022).

Columns and labels:
[1] = ADME screening: cell permeability and efflux ratio; conditions: Table 8
[2] = Hepatocyte stability in vitro; format: in vitro ADME; conditions: Table 8

COc1ccc2nc3cc(Cl)ccc3c(Nc3ccc(O)c(CN4CCN(CCN(C)C)CC4)c3)c2c1 [Compound A4, 4-((6-Chloro-2-methoxyacridin-9-yl)amino)-2-((4-(2-(dimethylamino)ethyl)piperazin-1-yl)methyl) phenol]
Cell permeability (Mean recovery %) (in words) [1]: Low
Hepatocyte stability in vitro CLint (in words) [2]: (medium
